Experimental data from patent US10947210B2 (priority 2015, dated 2021).

Each compound was assayed against HCV RNA-dependent RNA polymerase (NS5B) (Hepatitis C virus genotype 1b (isolate BK) (HCV), UniProt P26663) (assay: RNA-Dependent RNA HCV NS5B (polymerase) Assay and IC50 Determination). Conditions: purified HCV NS5B polymerase, polyA:U16 substrate, 32P-UTP incorporation; read-out: IC50.
Chain of HCV RNA-dependent RNA polymerase (NS5B) (P26663 2420-3010): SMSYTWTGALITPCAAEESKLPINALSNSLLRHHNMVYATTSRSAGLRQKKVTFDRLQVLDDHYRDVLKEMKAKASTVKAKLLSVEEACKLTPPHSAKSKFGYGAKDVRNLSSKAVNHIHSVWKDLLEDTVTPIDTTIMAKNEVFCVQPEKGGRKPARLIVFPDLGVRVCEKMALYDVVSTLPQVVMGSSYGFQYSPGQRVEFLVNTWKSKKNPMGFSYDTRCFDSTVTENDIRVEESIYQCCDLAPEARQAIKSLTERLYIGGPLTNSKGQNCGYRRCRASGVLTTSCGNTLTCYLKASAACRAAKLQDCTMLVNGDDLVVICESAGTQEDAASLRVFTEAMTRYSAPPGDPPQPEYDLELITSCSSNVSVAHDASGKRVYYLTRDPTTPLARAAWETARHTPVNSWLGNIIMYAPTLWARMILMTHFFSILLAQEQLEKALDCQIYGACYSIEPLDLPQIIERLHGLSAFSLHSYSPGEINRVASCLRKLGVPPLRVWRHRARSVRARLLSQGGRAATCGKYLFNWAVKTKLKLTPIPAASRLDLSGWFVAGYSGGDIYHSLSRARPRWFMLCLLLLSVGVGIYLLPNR
Format: biochemical
How it was run: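 Purified NS5B was incubated with 0.5 uM polyA:U16, 10 μM UTP plus ^32P-UTP in 50 mM Hepes-KOH pH 7.5, 5 mM MgCl2, 5 mM DTT, 2% glycerol and 0.01% Triton X-100. Inhibitor reactions ran 60 min at 37° C, and radiolabelled RNA product was quantified after filter capture. IC50 values were obtained from concentration series.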
With CNC(=O)c1c(-c2ccc(F)cc2)oc2cc(N(CCOCCOCc3cccc(C(=O)OC)c3)S(C)(=O)=O)c(C3CC3)cc12 [Compound 06-6C, 3-[2-(2-{[5-Cyclopropyl-2-(4-fluoro-phenyl)-3-methylcarbamoyl-benzofuran-6-yl]-methanesulfonyl-amino}-ethoxy)-ethoxymethyl]-benzoic acid methyl ester] the IC50 was greater than 1000 nM. For CNC(=O)c1c(-c2ccc(F)cc2)oc2cc(N(CCOCCOCCc3ccc(C(=O)OC)cc3)S(C)(=O)=O)c(C3CC3)cc12 [Compound 11-5C, 4-{2-[2-(2-{[5-Cyclopropyl-2-(4-fluoro-phenyl)-3-methylcarbamoyl-benzofuran-6-yl]-methanesulfonyl-amino}-ethoxy)-ethoxy]-ethyl}-benzoic Acid Methyl Ester], the IC50 was greater than 1000 nM. CNC(=O)c1c(-c2ccc(F)cc2)oc2cc(N(CCOCCOCCOCc3cccc(C(C)=O)c3)S(C)(=O)=O)c(C3CC3)cc12 [Compound 02-8B, 6-[(2-{2-[2-(3-Acetyl-benzyloxy)-ethoxy]-ethoxy}-ethyl)-methanesulfonyl-amino]-5-cyclopropyl-2-(4-fluoro-phenyl)-benzofuran-3-carboxylic Acid Methylamide] gave an IC50 greater than 1000 nM. CNC(=O)c1c(-c2ccc(F)cc2)oc2cc(N(CCOCCOCCOCc3ccc(C(=O)O)cc3)S(C)(=O)=O)c(C3CC3)cc12 [Compound 30-7, 4-{2-[2-(2-{[5-Cyclopropyl-2-(4-fluoro-phenyl)-3-methylcarbamoyl-benzofuran-6-yl]-methanesulfonyl-amino}-ethoxy)-ethoxy]-ethoxymethyl}-benzoic acid] showed an IC50 greater than 1000 nM. CCOC(=O)/C(O)=C/C(=O)c1ccc(COCCOCCOCCOCCN(c2cc3oc(-c4ccc(F)cc4)c(C(=O)NC)c3cc2C2CC2)S(C)(=O)=O)cc1 [Compound 02-9H, 4-[4-(2-{2-[2-(2-{[5-Cyclopropyl-2-(4-fluoro-phenyl)-3-methylcarbamoyl-benzofuran-6-yl]-methanesulfonyl-amino}-ethoxy)-ethoxy]-ethoxy}-ethoxymethyl)-phenyl]-2-hydroxy-4-oxo-but-2-enoic Acid Ethyl Ester] was tested, and the IC50 was greater than 1000 nM. Work on CNC(=O)c1c(-c2ccc(F)cc2)oc2cc(N(CC(=O)NCC(=O)NCCCCC(=O)O)S(C)(=O)=O)c(C3CC3)cc12 [Compound 10-4A, 5-[2-(2-{[5-Cyclopropyl-2-(4-fluoro-phenyl)-3-methylcarbamoyl-benzofuran-6-yl]-methanesulfonyl-amino}-acetylamino)-acetylamino]-pentanoic Acid] yielded an IC50 greater than 1000 nM. CCOC(=O)c1ccccc1OCCOCCOCCN(c1cc2oc(-c3ccc(F)cc3)c(C(=O)NC)c2cc1C1CC1)S(C)(=O)=O [Compound 14-6A, 2-{2-[2-(2-{[5-Cyclopropyl-2-(4-fluoro-phenyl)-3-methylcarbamoyl-benzofuran-6-yl]-methanesulfonyl-amino}-ethoxy)-ethoxy]-ethoxy}-benzoic Acid Ethyl Ester] gave an IC50 of 100 to 1000 nM. Work on CNC(=O)c1c(-c2ccc(F)cc2)oc2cc(N(CCOCCOCCOC(C(=O)NO)c3ccccc3)S(C)(=O)=O)c(C3CC3)cc12 (centres unmarked) [Compound 25-6, 5-Cyclopropyl-2-(4-fluoro-phenyl)-6-[(2-{2-[2-(hydroxycarbamoyl-phenyl-methoxy)-ethoxy]-ethoxy}-ethyl)-methanesulfonyl-amino]-benzofuran-3-carboxylic Acid Methylamide] yielded an IC50 greater than 1000 nM. In the case of CNC(=O)c1c(-c2ccc(F)cc2)oc2cc(N(CCOCCOCCOCCOCc3ccc(C(C)=O)cc3)S(C)(=O)=O)c(C3CC3)cc12 [Compound 02-8H, 6-{[2-(2-{2-[2-(4-Acetyl-benzyloxy)-ethoxy]-ethoxy}-ethoxy)-ethyl]-methanesulfonyl-amino}-5-cyclopropyl-2-(4-fluoro-phenyl)-benzofuran-3-carboxylic Acid Methylamide], the IC50 is reported as greater than 1000 nM. In the case of CNC(=O)c1c(-c2ccc(F)cc2)oc2cc(N(CCCCCCCc3ccc(C(=O)OC)cc3)S(C)(=O)=O)c(C3CC3)cc12 [Compound 13-7D, 4-(7-{[5-Cyclopropyl-2-(4-fluoro-phenyl)-3-methylcarbamoyl-benzofuran-6-yl]-methanesulfonyl-amino}-heptyl)-benzoic Acid Methyl Ester], the IC50 is reported as 100 to 1000 nM. Work on CNC(=O)c1c(-c2ccc(F)cc2)oc2cc(N(CCOCCOCCOCCOCc3cccc(C(=O)/C=C(\O)C(=O)O)c3)S(C)(=O)=O)c(C3CC3)cc12 [Compound 02-10C, 4-[3-(2-{2-[2-(2-{[5-Cyclopropyl-2-(4-fluoro-phenyl)-3-methylcarbamoyl-benzofuran-6-yl]-methanesulfonyl-amino}-ethoxy)-ethoxy]-ethoxy}-ethoxymethyl)-phenyl]-2-hydroxy-4-oxo-but-2-enoic Acid] yielded an IC50 of 100 to 1000 nM. CNC(=O)c1c(-c2ccc(F)cc2)oc2cc(N(CCOCCOCCOCCOCCOCCOCc3cccc(C(C)=O)c3)S(C)(=O)=O)c(C3CC3)cc12 [Compound 02-8E, 6-[(2-{2-[2-(2-{2-[2-(3-Acetyl-benzyloxy)-ethoxy]-ethoxy}-ethoxy)-ethoxy]-ethoxy}-ethyl)-methanesulfonyl-amino]-5-cyclopropyl-2-(4-fluoro-phenyl)-benzofuran-3-carboxylic Acid Methylamide] was tested, and the IC50 was greater than 1000 nM. CNC(=O)c1c(-c2ccc(F)cc2)oc2cc(N(CCOCCOCCOCc3ccc(C(=O)/C=C(\O)C(=O)O)cc3)S(C)(=O)=O)c(C3CC3)cc12 [Compound 02-10G, 4-(4-{2-[2-(2-{[5-Cyclopropyl-2-(4-fluoro-phenyl)-3-methylcarbamoyl-benzofuran-6-yl]-methanesulfonyl-amino}-ethoxy)-ethoxy]-ethoxymethyl}-phenyl)-2-hydroxy-4-oxo-but-2-enoic Acid] gave an IC50 greater than 1000 nM. Work on CNC(=O)c1c(-c2ccc(F)cc2)oc2cc(N(CCOCCOCCOC(C)(C)C(=O)NO)S(C)(=O)=O)c(C3CC3)cc12 [Compound 26-8B, 5-Cyclopropyl-2-(4-fluoro-phenyl)-6-[(2-{2-[2-(1-hydroxycarbamoyl-1-methyl-ethoxy)-ethoxy]-ethoxy}-ethyl)-methanesulfonyl-amino]-benzofuran-3-carboxylic Acid Methylamide] yielded an IC50 greater than 1000 nM. Compound CNC(=O)c1c(-c2ccc(F)cc2)oc2cc(N(CCOCCOCCOCCOCCOCc3ccc(C(=O)/C=C(\O)C(=O)O)cc3)S(C)(=O)=O)c(C3CC3)cc12 [Compound 02-10I, 4-{4-[2-(2-{2-[2-(2-{[5-Cyclopropyl-2-(4-fluoro-phenyl)-3-methylcarbamoyl-benzofuran-6-yl]-methanesulfonyl-amino}-ethoxy)-ethoxy]-ethoxy}-ethoxy)-ethoxymethyl]-phenyl}-2-hydroxy-4-oxo-but-2-enoic Acid] has an IC50 greater than 1000 nM. CNC(=O)c1c(-c2ccc(F)cc2)oc2cc(N(CCOCCCCCOCC(=O)O)S(C)(=O)=O)c(C3CC3)cc12 [Compound 27-9A, [5-(2-{[5-Cyclopropyl-2-(4-fluoro-phenyl)-3-methylcarbamoyl-benzofuran-6-yl]-methanesulfonyl-amino}-ethoxy)-pentyloxy]-acetic Acid] was tested, and the IC50 was 100 to 1000 nM. Compound CNC(=O)c1c(-c2ccc(F)cc2)oc2cc(N(CCOCCOCc3ccc(C(=O)OC)cc3C)S(C)(=O)=O)c(C3CC3)cc12 [Compound 18-9B, 4-[2-(2-{[5-Cyclopropyl-2-(4-fluoro-phenyl)-3-methylcarbamoyl-benzofuran-6-yl]-methanesulfonyl-amino}-ethoxy)-ethoxymethyl]-3-methyl-benzoic Acid Methyl Ester] has an IC50 greater than 1000 nM.
